These results are taken from ChEMBL document CHEMBL1150748, “Isolation of the antimicrobial alkaloid stemmadenine from Iraqi Rhazya stricta” (1988).

What all share (format): functional
One assay has as its system Staphylococcus aureus. Nature of the assay: Antimicrobial activity against Staphylococcus aureus ATCC 6538.
The test system of the next assay is Escherichia coli. Briefly: Antimicrobial activity against Escherichia coli ATCC 8739.
In a further assay the test system is Pseudomonas aeruginosa. Briefly: Antimicrobial activity against Pseudomonas aeruginosa ATCC 9027.
In the next assay the test system is Candida albicans. Briefly: Antimicrobial activity against Candida albicans ATCC 10231.

In brackets after ≈: the same amount, converted by molar mass.

For `CC(=O)O.CC(=O)O.NC(=N\CCCCCC/N=C(N)/N=C(\N)Nc1ccc(Cl)cc1)/N=C(\N)Nc1ccc(Cl)cc1` [CHLORHEXIDINE DIACETATE], the MIC in the assay on Staphylococcus aureus was 0.2 mg/L; against Escherichia coli, 0.4 mg/L; against Pseudomonas aeruginosa, 1.5 mg/L; in the assay on Candida albicans, 4.5 mg/L.
Turning to THIMEROSAL, the minimum inhibitory concentration (MIC) against Staphylococcus aureus was 0.2 mg/L; with Escherichia coli, 0.6 mg/L; in the assay on Pseudomonas aeruginosa, 1.5 mg/L; against Candida albicans, 0.1 mg/L.
Take `CCCCCCCCCCCCC[N+](C)(C)Cc1ccccc1.[Cl-]` [BENZALKONIUM CHLORIDE]: the MIC in the assay on Staphylococcus aureus came to 0.32 mg/L; in the assay on Escherichia coli it was 2.8 mg/L; with Pseudomonas aeruginosa, 8 mg/L; in the assay with Candida albicans it was 1.8 mg/L.
Taken in the same sequence, the figures for `C/C=C1/CN2CCc3c([nH]c4ccccc34)[C@@](CO)(C(=O)OC)[C@@H]1CC2` [STEMMADENINE] were 5 mg/L (≈ 14.1 µM), 1.25 mg/L (≈ 3.53 µM), 7.5 mg/L (≈ 21.2 µM) and 37.5 mg/L (≈ 106 µM).
